The target in the assay is T1, human KCNQ2 and KCNQ3 (Homo sapiens, UniProt O43525+O43526).
T1 construct: expressed in transfected cells; host or cells: HEK293
As to the kind of experiment: KCNQ 2/3 channel activation, thallium flux FLIPR assay (BTC-AM dye) in HEK293 cells. The class given is cell-based. The conditions noted are these: for Emax: HEK293, maximum response relative to response of retigabine at 10 μM set at 100%, read-out: Max response; for EC50: HEK293 cells stably expressing human KCNQ2 and KCNQ3, compound incubated 4 minutes, Tl+ flux fluorescence. The procedure: The following example describes the assay that can be used to identify compounds that activate KCNQ 2/3 channels.
HEK293 cells stably expressing human KCNQ2 and KCNQ3 were seeded in 96-well, black-walled, clear-bottomed, poly-D-lysine coated plates (BD Biosciences, Bedford, Mass.) at a density of 1×10^5 cells per well 24 hours before the assay. On the assay day, BTC-AM dye (Invitrogen, Carlsbad, Calif.) was loaded into the cells by replacing the cell culture medium with 100 μL/well of 4 μM dye in DPBS. Dye loading was allowed to proceed for 2 hours at room temperature and then cells were washed twice in 100 μL/well of assay buffer (in mM: 10 HEPES pH 7.3, 5 glucose, 140 Na-gluconate, 2.5 K-gluconate, 3.6 Ca-gluconate, 2 MgSO4, 0.1 Ouabain) to remove unloaded dye. Cells were incubated in 50 μL of assay buffer before loading onto a FLIPR system (Molecular Devices, Sunnyvale, Calif.). Various concentrations of compounds to be assayed were added to the cells in 50 μL of assay buffer and incubated for 4 minutes. The fluorescence signal was initiated by adding 100 μL of assay buffer containing 6 mM TlNO3 and 10 mM K2SO4. Fluors were excited using the 488-nm line of an argon laser and emission was filtered using a 540±30 nm bandpass filter. Fluorescent signals were recorded for 3 minutes. Responses over baseline values were plotted versus concentrations of test compounds to obtain an EC50 value. The maximum response for each test compound was determined relative to the response produced at 10 μM by retigabine. The maximum response of retigabine at 10 μM was set at 100%.

Broadly, the EC50 is the concentration giving half of the maximal effect.

T1 sequence (O43526 whole entry): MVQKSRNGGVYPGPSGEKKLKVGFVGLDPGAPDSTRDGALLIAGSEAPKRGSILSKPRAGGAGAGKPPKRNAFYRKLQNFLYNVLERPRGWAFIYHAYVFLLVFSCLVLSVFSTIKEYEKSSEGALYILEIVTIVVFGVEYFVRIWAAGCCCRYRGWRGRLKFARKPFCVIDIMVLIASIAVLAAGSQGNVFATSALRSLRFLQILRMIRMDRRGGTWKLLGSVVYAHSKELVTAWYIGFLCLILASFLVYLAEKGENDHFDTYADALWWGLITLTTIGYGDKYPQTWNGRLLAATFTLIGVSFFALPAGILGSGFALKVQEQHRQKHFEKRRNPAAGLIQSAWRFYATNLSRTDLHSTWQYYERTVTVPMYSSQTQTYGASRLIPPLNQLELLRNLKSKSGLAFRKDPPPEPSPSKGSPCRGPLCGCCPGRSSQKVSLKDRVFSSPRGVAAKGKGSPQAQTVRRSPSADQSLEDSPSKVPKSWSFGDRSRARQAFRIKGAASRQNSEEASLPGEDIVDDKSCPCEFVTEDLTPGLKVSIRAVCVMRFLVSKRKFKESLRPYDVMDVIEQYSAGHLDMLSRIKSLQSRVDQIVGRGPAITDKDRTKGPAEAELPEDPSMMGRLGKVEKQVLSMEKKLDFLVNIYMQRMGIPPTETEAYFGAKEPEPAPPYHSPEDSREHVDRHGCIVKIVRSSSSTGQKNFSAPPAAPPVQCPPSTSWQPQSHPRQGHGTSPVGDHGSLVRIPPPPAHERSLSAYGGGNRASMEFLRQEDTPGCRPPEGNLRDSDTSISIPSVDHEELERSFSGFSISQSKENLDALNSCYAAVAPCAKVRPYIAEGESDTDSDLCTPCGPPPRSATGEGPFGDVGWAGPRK
T1 sequence (O43525 whole entry): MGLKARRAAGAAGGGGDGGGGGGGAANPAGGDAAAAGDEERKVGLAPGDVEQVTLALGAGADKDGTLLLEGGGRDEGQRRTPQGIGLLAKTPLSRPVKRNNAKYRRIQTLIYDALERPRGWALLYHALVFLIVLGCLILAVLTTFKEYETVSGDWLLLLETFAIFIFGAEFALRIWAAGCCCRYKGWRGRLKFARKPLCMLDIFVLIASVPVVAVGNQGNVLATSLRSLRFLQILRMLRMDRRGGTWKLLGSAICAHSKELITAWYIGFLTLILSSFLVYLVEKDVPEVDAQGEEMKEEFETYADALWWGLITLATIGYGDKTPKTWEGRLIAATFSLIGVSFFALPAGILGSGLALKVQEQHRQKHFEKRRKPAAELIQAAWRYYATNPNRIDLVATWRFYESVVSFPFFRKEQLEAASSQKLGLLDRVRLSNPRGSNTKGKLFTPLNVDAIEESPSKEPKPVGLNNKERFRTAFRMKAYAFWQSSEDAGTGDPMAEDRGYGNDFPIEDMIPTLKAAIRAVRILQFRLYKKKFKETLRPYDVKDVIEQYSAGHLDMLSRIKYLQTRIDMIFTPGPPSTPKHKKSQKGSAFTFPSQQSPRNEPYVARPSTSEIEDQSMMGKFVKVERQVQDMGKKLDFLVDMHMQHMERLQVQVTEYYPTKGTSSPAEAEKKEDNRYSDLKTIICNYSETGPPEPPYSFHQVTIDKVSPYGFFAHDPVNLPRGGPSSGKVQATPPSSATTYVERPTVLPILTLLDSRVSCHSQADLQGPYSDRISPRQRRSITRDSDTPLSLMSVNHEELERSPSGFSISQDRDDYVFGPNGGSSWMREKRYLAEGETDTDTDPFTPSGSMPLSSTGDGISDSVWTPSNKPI

Take `O=C(CCC1CCCC1)Nn1c(C23CC4CC(CC2C4)C3)nc2ccccc2c1=O` [Example 3, 3-cyclopentyl-N-(2-hexahydro-2,5-methanopentalen-3a(1H)-yl-4-oxoquinazolin-3(4H)-yl)propanamide]: the Emax came to 171% and the midpoint of the response, the EC50, lay at 277 nM.
On to `Cc1nc2sc3c(c2c(=O)n1NC(=O)CC12CC4CC(CC(C4)C1)C2)CCCCC3` [Example 48, 2-(1-adamantyl)-N-(2-methyl-4-oxo-6,7,8,9-tetrahydro-4H-cyclohepta[4,5]thieno[2,3-d]pyrimidin-3(5H)-yl)acetamide], for which the Emax amounted to 89.8% and the EC50 is 10900 nM.
As for `O=C(CC12CC3CC(CC(C3)C1)C2)Nn1cnc2ccsc2c1=O` [Example 26, 2-(1-adamantyl)-N-(4-oxothieno[3,2-d]pyrimidin-3(4H)-yl)acetamide], the Emax stood at 140% and the EC50 was determined as 2680 nM.
In the same order, the values of `O=C(CC12CC3CC(CC(Cl)(C3)C1)C2)Nn1c(C2CC2)nc2cc(C(F)(F)F)ccc2c1=O` [Example 50, 2-[3-chloro-1-adamantyl]-N-[2-cyclopropyl-4-oxo-7-(trifluoromethyl)quinazolin-3(4H)-yl]acetamide] are -0.535% and more than 31600 nM.
The corresponding values for `O=C(CC12CC3CC(CC(Cl)(C3)C1)C2)Nn1c(C2CC2)nc2cc(F)ccc2c1=O` [Example 53] are 116% and 250 nM.
On to `Cc1sc2nc(C)n(NC(=O)CC34CC5CC(CC(C5)C3)C4)c(=O)c2c1-c1ccccc1` [Example 46, 2-(1-adamantyl)-N-(2,6-dimethyl-4-oxo-5-phenylthieno[2,3-d]pyrimidin-3(4H)-yl)acetamide], for which the Emax worked out at 130% and the EC50 is 454 nM.
In the case of `O=C(Nn1c(-c2ccccc2)nc2ccccc2c1=O)C1C2CC3CC(C2)CC1C3` (centres unmarked) [Example 38, N-(4-oxo-2-phenylquinazolin-3(4H)-yl)adamantane-2-carboxamide], the Emax is -43.5% and the EC50 is more than 30000 nM.
In the same order, the values of `CCc1nc2ccccc2c(=O)n1NC(=O)[C@@H]1[C@H]2[C@@H]3CC[C@@H](C3)[C@@H]12` [Example 58, (exo,exo)-N-(2-ethyl-4-oxoquinazolin-3(4H)-yl)tricyclo[3.2.1.0^2,4]octane-3-carboxamide] are 11.6% and more than 31600 nM.
In the same order, the values of `CCc1cc2c(=O)n(NC(=O)CC34CC5CC(CC(C5)C3)C4)cnc2s1` [Example 20, 2-(1-adamantyl)-N-(6-ethyl-4-oxothieno[2,3-d]pyrimidin-3(4H)-yl)acetamide] are 139% and 438 nM.
Turning to `Cc1sc2nc(C)n(NC(=O)CC34CC5CC(CC(C5)C3)C4)c(=O)c2c1C` [Example 49, 2-(1-adamantyl)-N-(2,5,6-trimethyl-4-oxothieno[2,3-d]pyrimidin-3(4H)-yl)acetamide], the Emax was 65.2% and the half-maximal effective concentration (EC50) is 779 nM.
The corresponding values for `O=C(Cc1ccc(Cl)cc1)Nn1c(C23CC4CC(CC2C4)C3)nc2ccccc2c1=O` [Example 2, 2-(4-chlorophenyl)-N-(2-hexahydro-2,5-methanopentalen-3a(1H)-yl-4-oxoquinazolin-3(4H)-yl)acetamide] are 140% and 198 nM.
The corresponding values for `O=C(C[C@@H]1C[C@@H]2C=C[C@H]1C2)Nn1c(-c2ccccc2)nc2ccccc2c1=O` (racemic) [Example 19, (±)-endo-2-bicyclo[2.2.1]hept-5-en-2-yl-N-(4-oxo-2-phenylquinazolin-3(4H)-yl)acetamide] are 130% and 2280 nM.
The corresponding values for `O=C(CC1CC2CCC1C2)Nn1c(-c2ccccc2)nc2ccccc2c1=O` (racemic) [Example 12, (±)-exo-2-bicyclo[2.2.1]hept-2-yl-N-(4-oxo-2-phenylquinazolin-3(4H)-yl)acetamide] are 176% and 535 nM.
